# Tests used:
# T cells [1] = assay: Leukocyte subsets in harvested T cells by immunophenotyping; format: cell-based, human; details: at harvest, both conditions
# Protocol: Analysis of human B cells (CD19), monocytes (CD14), NK cells (CD56/16), NKT cells (CD3+CD56+), and T cells (CD3+Cd56−) were performed by immunophenotyping.
# apheresed donor cells = assay: Growth and viability of cells expanded in media supplemented with 2-DG; format: cell-based, human
# Protocol: A portion of the washed apheresed donor cells comprising 1.2E9 nucleated cells were transferred into two transfer bags under the Dilute program using Sepax C-Pro processing system with the same CS-600.1 Kit (a new kit was not used). Into one bag was added about 8 ml of Media 1 (OpTmizer™ complete media containing 300 IU/mL rhIL-2 (ThermoFisher) and 2 mM 2-Deoxy-D-glucose (2-DG) (MilliporeSigma, Burlington, MA)). Into the second bag was added about 8 ml of Media 2 (OpTmizer™ complete media containing 300 IU/mL rhIL-2 (ThermoFisher)). To each was added 7.5 ml Immunocult™ anti-CD3/CD28/[…] (25 μl/ml media with cells, Stemcell Technologies). The amount of activator was determined based on the culture volume of 300 ml that was used in the culture/activation step below. The bags were incubated for 1 hour at room temperature to allow for saturation of antibody binding.
# A 2 L XURI® SP Perf Cellbag bioreactor (GE Healthcare) was connected to a XURI® Cell Expansion System W25 and 300 ml Media 1 was added and allowed to equilibrate at 37° C., 5% CO2, gas flow rate of 0.1 L/min, and a rocking rate of 6 rpm at a 6° angle. […]
# On Day 1, the nucleated cells in each bag were counted and the amount of a lentiviral vector (comprising a polynucleotide encoding a TCR) corresponding to a MOI of 1 functional titer was diluted in 10 ml of Media 1 or Media 2 and placed in transfer bags. […]
# On Day 2, about half the volume of the culture media in each bioreactor bag was exchanged using three 50 ml bag washouts through feed-line and waste-line. Cell counts were taken daily and viable cell density (VCD), viability, dissolved oxygen, metabolites were determined as described above. Cell phenotypes were determined for all samples tested. […]
# Total viable cell density, viability, glucose and lactate measurements were taken each day. Phenotyping was determined on Days 3, 5 and 7. […]
# Total viable cell density, viability, glucose and lactate measurements were taken each day. Phenotyping was determined on Days 9 and 14.
# T cells [2] = assay: Transgene expression of cells expanded in media with 2-DG; format: cell-based, human
# Protocol: On Day 1, the nucleated cells in each bag were counted and the amount of a lentiviral vector (comprising a polynucleotide encoding a TCR) corresponding to a MOI of 1 functional titer was diluted in 10 ml of Media 1 or Media 2 and placed in transfer bags. The transfer bags were sterile welded on XURI® Cellbag feed-lines and the lentivirus was then transferred into each of the bioreactors via gravity flow. The cells were incubated at 37° C., 5% CO2, gas flow rate of 0.1 L/min, and a rocking rate of 2 rpm at a 2° angle, for 20-24 hours.
# In contrast, transgene expression of T cell in non-2-DG media decreased to 44.4% at high cell density ([…]).
# T cells [3] = assay: T cell differentiation phenotyping (Tscm, Tcm, Tem) with 2-DG; format: cell-based, human
# Protocol: Tscm, Tcm, Tem, and Tte subsets were analyzed by immunophenotyping based on their expression of CD45RA, CD45RO, CD95, and CCR7.
# 2-DG was added to culture medium between Days 0 and 7 and the feed medi was replaced with non-2-DG media (Media 1) from Days 7-14. […] The T cells continued differentiation after 2-DG was perfused out from culture media and ended at a similar level of differentiation as T cells in non-2-DG media (Media 1).
# (§1) T2 cells expressing Luciferase were pulsed with the peptide recognized by the engineered TCR or with DMSO for 4 hours and the cells were washed before setting up a co-culture assay with 20,000 total T cells at a 1:1 (E:T) ratio. (A) 48 hours later, the luciferase signal was measured using the Steady Glo® Luciferase Assay System (Promega). Specific cytotoxicity was measured relative to the no peptide T2 cells cultured with the TCR T cells. (B) IFN-γ expression was measured using the AlphaLISA® detection kit (Perkin Elmer Waltham, MA) after 24 hours of co-culture. […] In addition, 24 hour accumulated release of IFN-γ was higher for T cells in non-2-DG media cross all concentration of peptide tested. […] Culture media containing 2-DG was used throughout the entire process (10 days).
# T cells [4] = assay: CD25 expression by cells expanded in media with 2-DG; format: cell-based, human
# Excerpt: Even through CD25 expression by T cells in both conditions saturated at ±80%. T cells in 2-DG media retained CD25 better at Days[…] and 9 than the cells in the non-2-DG media. This may be due to the higher transgene expression and T cell yield for T cells generated in the 2-DG media.
# glycolysis = assay: Glucose and lactate concentrations in culture (Cedex Bio Analyzer); format: cell-based, human
# Protocol: Glucose and lactate were measured using Cedex Bio Analyzer (Roche, Indianapolis, IN). […] In addition, the effect of 2-DG was reversible as restoration of glucose (A) and lactate (B) levels was found after removal of 2-DG from the media from Day 7 to 14.
# T2 cells [5] = assay: IFN-γ expression after co-culture with T2 cells (AlphaLISA); format: cell-based; details: 24 hours co-culture, all peptide concentrations tested
# Protocol: as §1
# T2 cells [6] = assay: Potency assay: cytotoxicity against peptide-pulsed T2 cells expressing Luciferase; format: cell-based; details: peptide 1 μM, E:T 1:1, 48 hours
# Protocol: as §1
compound,measurement,setting,value
"O=CC[C@@H](O)[C@H](O)[C@H](O)CO [2-DG, 2-deoxy-D-glucose]",CD3+ cell purity,T cells [1],above 98%
same,T cells yielded,"apheresed donor cells; 2 mM 2-DG media, 14 days, without 2-DG 25 billion",35 billion T cells
same,Viability compared with non-2-DG media,apheresed donor cells; Day 4 to Day 10,slightly higher viability
same,Overall viability,apheresed donor cells; both media conditions,above 70%
same,Transgene expression by T cells,"T cells [2]; 2-DG media, non-2-DG media 54%",56%
same,Transgene expression at high cell density,"T cells [2]; cell density 35 billion cells/ml, non-2-DG media 44.4% at 25 billion cells/ml",50.4%
same,collected Tscm and Tcm subsets,"T cells [3]; 2-DG throughout entire process (10 days), non-2-DG media 43%",59%
same,Tscm subset,"T cells [3]; Day 5, non-2-DG media 14%",26%
same,combined Tcm and Tscm,"T cells [3]; Day 7, non-2-DG media 56%",86%
same,CD25 expression in response to activation,"T cells [4]; 2-DG media, non-2-DG media 46%",32%
same,CD25 expression at saturation,T cells [4]; both conditions,~80%
same,Glucose concentration in spent media compared to non-2-DG condition,glycolysis; 2-DG media (Media 1),higher glucose concentration
same,Lactate concentration in spent media compared to non-2-DG condition,glycolysis; 2-DG media (Media 1),higher lactate concentration
same,Effect on glucose and lactate levels after removal of 2-DG,glycolysis; 2-DG removed from media Day 7 to 14,reversible
same,24 hour accumulated release of IFN-γ versus non-2-DG media,T2 cells [5],lower level of IFN-γ
same,T2 cell lysis versus T cells from non-2-DG media,T2 cells [6],No significant difference

# From patent US12378521B2, “Method for enhancing production of genetically engineered autologous T cells” (AMGEN INC., priority 2020, dated 2025)
